Measurements as given in the PolyMetriX glass transition set.
± gives the standard deviation of the reports.

glass transition temperature [°C]	SMILES
383.00	*c1ccc(-c2ccc3nc(*)cc(-c4ccccc4)c3c2)cc1 (repeat unit)
261.00	*c1ccc(Oc2ccc(C(c3ccccc3)(c3ccccc3)c3ccc(Oc4ccc(-c5nc(*)nc(-c6ccccc6)n5)cc4)cc3)cc2)cc1 (repeat unit)
70.34	*O[Si](C)(C)CCC/N=C1C=C(O)/C(=N\CCC[Si](*)(C)C)C=C\1O (repeat unit)
320.00	*C(=O)Nc1ccc(Oc2ccc(C3(c4ccc(Oc5ccc(NC(=O)c6ccc7c(c6)C(=O)N(c6ccc(Oc8ccc(N9C(=O)c%10ccc(*)cc%10C9=O)cc8)cc6)C7=O)cc5)cc4)NC(=O)c4ccccc43)cc2)cc1 (repeat unit)
245.00	*c1ccc(Oc2ccc(C(=O)c3ccc(C(=O)c4ccc(Oc5ccc(N6C(=O)c7ccc(-c8ccc9c(c8)C(=O)N(*)C9=O)cc7C6=O)cc5)cc4)cc3)cc2)cc1 (repeat unit)
231.00	*Sc1ccc(C(=O)CNCCCCCCCCNCC(=O)c2ccc(*)cc2)cc1 (repeat unit)
167.00	*Oc1cccc(Oc2ccc(S(=O)(=O)c3ccc(Oc4ccc(C(=O)c5ccc(*)cc5)cc4)cc3)cc2)c1 (repeat unit)
146.00	*CCN(CCOC(=O)NCC1(C)CC(NC(=O)O*)CC(C)(C)C1)c1ccc(/N=N/c2ccc(B(c3c(C)cc(C)cc3C)c3c(C)cc(C)cc3C)cc2)cc1 (repeat unit)
28.00	*Oc1ccc(CC(NC(=O)CCc2ccc(OC(=O)CCCCC(*)=O)cc2)C(=O)OCCCCCCCC)cc1 (repeat unit)
25.00	*CC(O)COC(=O)CCCCCCCCCCC(=O)OCC(O)COc1ccc(C(C)(C)c2ccc(O*)cc2)cc1 (repeat unit)
28.00	*/C=[CH]/[Ge](/[CH]=C/[Si](*)(c1ccccc1)c1ccccc1)([c]1ccccc1)[c]1ccccc1 (repeat unit)
266.00	*c1ccc2c(c1)C(=O)N(c1c(CC)cc(Cc3cc(CC)c(N4C(=O)c5ccc(C(*)(C(F)(F)F)C(F)(F)F)cc5C4=O)c(CC)c3)cc1CC)C2=O (repeat unit)
-9.00	*CC(*)OC(=O)C(F)(F)C(F)(F)C(F)(F)C(F)(F)C(F)(F)F (repeat unit)
188.00	*Oc1ccc(S(=O)(=O)c2ccc(Oc3ccc(C(C)(C)c4ccc(*)cc4)cc3)c(S(=O)(=O)O)c2)cc1S(=O)(=O)O (repeat unit)
87.50	*CC(CN1C(=O)C2C3C=CC(C3)C2C1=O)O* (repeat unit)
-8.00	*CCCCCCOC(=O)OCCCCCCCCCCCCOC(=O)OCCCCCCOc1ccc(C(=O)c2ccc(O*)cc2)cc1 (repeat unit)
234.00	*CC1CCCC(CN2C(=O)c3ccc(-c4ccc5c(c4)C(=O)N(*)C5=O)cc3C2=O)C1 (repeat unit)
235.00	*Nc1ccccc1CCc1ccccc1NC(=O)Nc1ccc(CCc2ccc(NC(*)=O)cc2)cc1 (repeat unit)

glass transition temperature [°C]	SMILES
121.00	*Oc1ccc(C(CC)(CC)c2ccc(OC(*)=S)cc2)cc1 (repeat unit)
386.00	*Oc1ccc(Sc2ccc(Oc3ccc4c(=O)n5c6cc(-c7ccc8c(c7)nc7c9ccc(*)c%10cccc(c(=O)n87)c%109)ccc6nc5c5cccc3c45)cc2)cc1 (repeat unit)
76.00	*Oc1ccc(/N=C/C=N/c2ccc(OC(=O)Nc3cc(NC(*)=O)ccc3C)cc2)cc1 (repeat unit)
199.50	*Nc1ccc(NC(=O)c2ccc(NC(=O)CCCCCCCCCCCCC(=O)Nc3ccc(C(*)=O)cc3)cc2)cc1C(=O)OCCCCCCCCCCCC (repeat unit)
78.00	*Oc1ccc(Sc2ccc(OC3(F)C(*)(F)C(F)(F)C3(F)F)cc2)cc1 (repeat unit)
225.00	*C(=O)c1ccc(Oc2ccc(Oc3ccc(C(=O)c4ccc5c(c4)C(=O)N(c4ccc(Cc6ccc(N7C(=O)c8ccc(*)cc8C7=O)cc6)cc4)C5=O)cc3)cc2)cc1 (repeat unit)
56.00	*Oc1ccc(CC(NC(=O)CCc2ccc(OC(=O)CCCC(*)=O)cc2)C(=O)OCCCC)cc1 (repeat unit)
285.00	*c1ccc(Oc2ccc(N3C(=O)c4ccc(Oc5cccc6c5C(=O)N(*)C6=O)cc4C3=O)cc2)cc1 (repeat unit)
56.00	*CC(CO*)(CS(=O)(=O)CCCCC)CS(=O)(=O)CCCCC (repeat unit)
22.00	*Oc1ccc(CC(NC(=O)CCc2ccc(OC(=O)CCCCC(*)=O)cc2)C(=O)OCCCCCCCCCCCC)cc1 (repeat unit)
229.00	*Oc1ccc(C2(c3ccc(Oc4ccc(C(=O)c5ccc(C(=O)c6ccc(*)c(C(F)(F)F)c6)cc5)cc4C(F)(F)F)cc3)c3ccccc3-c3ccccc32)cc1 (repeat unit)
257.00	*C(=O)Nc1ccc(Oc2ccc(Oc3ccc(NC(=O)c4ccc5c(c4)C(=O)N(c4ccc(Oc6ccc(C7(c8ccc(Oc9ccc(N%10C(=O)c%11ccc(*)cc%11C%10=O)cc9)cc8)CC8CC7C7CCCC87)cc6)cc4)C5=O)cc3)cc2)cc1 (repeat unit)
389.00	*Oc1ccc(C(=O)c2ccc(Oc3ccc4c(=O)n5c6cc(-c7ccc8c(c7)nc7c9ccc(*)c%10cccc(c(=O)n87)c%109)ccc6nc5c5cccc3c45)cc2)cc1 (repeat unit)
176.40	*Oc1cccc(Oc2cccc(NC(=O)c3cc(Oc4ccc(C(=O)O)c(C(=O)Nc5cccc(*)c5)c4)ccc3C(=O)O)c2)c1 (repeat unit)
105.70	*CCOC(=O)Nc1ccc(CCCCc2ccc(NC(=O)O*)cc2)cc1 (repeat unit)
249.00	*c1ccc(Oc2ccc(Oc3ccc(N4C(=O)c5ccc(Oc6cccc7c6C(=O)N(*)C7=O)cc5C4=O)cc3)cc2)cc1 (repeat unit)
272.00	*c1ccc(-c2cc(-c3ccc(-c4ccccc4)cc3)cc(-c3ccc(N4C(=O)c5ccc(NC(=O)Nc6ccc(-c7cc(-c8ccc(-c9ccccc9)cc8)cc(-c8ccc(NC(=O)Nc9ccc%10c(c9)C(=O)N(*)C%10=O)cc8)n7)cc6)cc5C4=O)cc3)n2)cc1 (repeat unit)

SMILES	glass transition temperature [°C]
*CC(*)OC(=O)C(F)(F)C(F)(F)F (repeat unit)	42.00
*CC(*)C(=O)OCCC(C)OC (repeat unit)	-56.00
*CC(*)CCCCC (repeat unit) [Poly(pentylethylene)]	-44.33 ± 1.7
*CC(*)C(=O)c1ccc(C)c(C)c1 (repeat unit)	42.00
*OP(=O)(Oc1ccc(*)cc1)OC1CCCCC1 (repeat unit)	108.00
*CC(*)(C)C(=O)OCCS(=O)CC (repeat unit)	25.00
*CC(*)(C)C(=O)OCCBr (repeat unit)	52.00
*CCCC(C)O[Si](C)(C)O* (repeat unit)	-81.00
*CC(*)c1ccc(-c2ccccc2)cc1 (repeat unit) [Poly(p-phenyl styrene) ]	138 ± 14
*OP(=O)(Oc1ccc([N+](=O)[O-])cc1)Oc1c(Br)cc(C(c2cc(Br)c(*)c(Br)c2)(C(F)(F)F)C(F)(F)F)cc1Br (repeat unit)	154.00
